Test results taken from patent US12029728B2, “Small molecules with anti-protozoan activity” (New Mexico Tech University Research Park Corporation, priority 2018, dated 2024).

Legend:
[1] = test system: L. major-infected MDMs; experiment: L. major-infected human MDMs, quantitative cell bioimaging; assay type: cell-based, Leishmania major; settings: 1 μM, 5 μM, 10 μM
Method: Human MDMs were cultured on glass slides and incubated with metacyclic L. major for 24 hours to allow for internalization of parasites. After the 24-hour L. major incubation period, extracellular parasites were removed from the culture. 24 hours after the removal of extracellular parasites, infected cells were treated with vehicle control (DMSO), 5 μM MTF, 1 μM Compound 2, 5 μM Compound 2, 10 μM Compound 2, 2 μM Compound 7, or 20 μM Compound 7. Following treatment, the cells were fixed with 2% paraformaldehyde and subsequently stained with the DNA stain Hoechst 33342. The stained cover slips were transferred onto glass slides, and quantitative cell bioimaging was utilized to determine the number of amastigotes per 500 cells using a CellInsight CX5 High Content screening platform.

[2] = test system: T. cruzi-infected ARPE cells; experiment: Treatment of T. cruzi-infected ARPE cells, imaging; assay type: cell-based, Trypanosoma cruzi; settings: for amastigotes in ARPE cultures: 5 days, EVOS imaging; for T. cruzi seen in EVOS image: day 12
Method: Four confocal dishes were prepared with 10,000 ARPE cells, which were adhered overnight at 37° C. The four dishes were ARPE control cells, non-infected but 5 μM Compound 2-treated cells, non-treated but infected cells, and infected cells treated with 5 μM Compound 2. For the infected dishes, ARPE media was removed and replaced with 2 mL of infectious amastigotes and trypomastigotes from the ARPE passaged plate. The dishes were then incubated for 2 hours at 37° C. The treated dishes were incubated with 5 μM Compound 2 for 5 days at 37° C., while untreated dishes were incubated in fresh media without Compound 2 for 5 days at 37° C. After the 5-day period, cells were washed 3 times in ARPE media and fixed with 1 mL 4% paraformaldehyde. Cells were visualized using an EVOS cell imaging system. Amastigotes appeared as small, dense, and mostly birefringent in images.
The experiment above was repeated using 1 μM Compound 2.
Four confocal dishes with 10,000 ARPE cells were prepared and adhered overnight at 37° C. The four dishes were: 1) ARPE control cells; 2) non-infected cells treated with 1 μM Compound 2; 3) untreated infected cells; and 4) T. cruzi-infected cells treated with 1 μM Compound 2. For the infected dishes, ARPE media was removed and replaced with 2 mL of infectious amastigotes and trypomastigotes expressing tdTomato (from ARPE passaged plate). The dishes were then incubated overnight for 7 days at 37° C. The untreated dishes were incubated in fresh media without Compound 2 for 7 days at 37° C. After the 7-day incubation period, cells were washed 3 times in ARPE media and fixed with 1 mL 4% paraformaldehyde. tdTomato fluorescence, which is indicative of viable T. cruzi, was then observed via fluorescence microscopy.
ARPE cells were plated in confocal dishes (20,000 cells per dish) and incubated overnight at 37° C. Cells were infected with T. cruzi by incubating cells with T. cruzi amastigotes and trypomastigotes expressing tdTomato (˜2×10^5 cells in total) for 24 hours at 37° C. Uninfected cells served as controls. Following the T. cruzi incubation period, extracellular parasites were removed, and the medium was replaced with DMEM/F12 culture media with or without 1 μM Compound 2. The cells were incubated further for 24 hours at 37° C. Cells were then treated two more times with fresh DMEM/F12 culture media with or without 1 μM Compound 2 and incubated for 24 hours at 37° C. Following fixation of cells in 4% paraformaldehyde, plates were imaged for tdTomato fluorescence, which is indicative of viable T. cruzi, such that the effects of repeated Compound 2 treatment could be compared to a single treatment with Compound 2.
ARPE cells were plated in confocal dishes (20,000 cells per dish) and incubated overnight at 37° C. Cells were infected with T. cruzi by incubating cells with T. cruzi amastigotes and trypomastigotes expressing tdTomato (˜2×10^5 cells in total) for 24 hours at 37° C. before washing dishes three times with DMEM/F12 culture media. Uninfected plates served as controls. The dishes were then treated with 2 μM Compound 2 or left untreated as a control and incubated further for 5 days at 37° C. The treated dish received a single treatment of Compound 2 on day 1. Dishes were washed twice with DMEM/F12 media and fixed in 4% paraformaldehyde before being imaged using confocal microscopy. […] The other Compound 2 dishes that were not incubated with T. cruzi a second time were used as controls. Following fixation of cells in 4% paraformaldehyde, tdTomato fluorescence of the cells was assessed using confocal microscopy.
ARPE cells were plated in confocal dishes (20,000 cells per dish) and incubated overnight at 37° C. Dishes were incubated with T. cruzi amastigotes and trypomastigotes expressing tdTomato (˜2×10^5 cells) for 48 hours at 37° C. Untreated cells served as controls. Cells were then washed 3 times with cell medium, treated with 5 μM Compound 2 or left untreated as a control and incubated further for 2 days at 37° C. […]

[3] = test system: T. cruzi-infected VERO cells; experiment: Treatment of T. cruzi-infected VERO cells, confocal microscopy; assay type: cell-based, Trypanosoma cruzi; settings: 5 μM, 5 days
Method: 2×10^4 VERO cells were plated in individual confocal dishes and allowed to adhere for 16 hours at 37° C. […] The T. cruzi-infected dishes were incubated with ˜2×10^6 T. cruzi/mL for 24 hours at 37° C. to allow for internalization of parasites. T. cruzi parasites expressed tdTomato, which allowed for visualization of parasites within cells. After the 24-hour T. cruzi incubation period, extracellular parasites were removed from culture dishes. The cells were washed 3 times with cell culture media (10% fetal bovine serum; 1% penicillin/streptomycin). Designated plates were then incubated with 5 μM Compound 2 or 5 μM Compound 7 for 5 days at 37° C. Cells were then fixed in 2% paraformaldehyde and tdTomato fluorescence in cells was assessed via confocal microscopy.

[4] = test system: T. cruzi amastigotes and trypomastigotes; experiment: Viability of tdTomato T. cruzi amastigotes and trypomastigotes, fluorescence; assay type: cell-based, Trypanosoma cruzi; settings: 25 μM, 48 hours at 37° C.
Method: The viability of a mixture of T. cruzi amastigotes and trypomastigotes after exposure to 25 μM of the compounds of the disclosure was determined. 2×10^5 parasites/100 μL were plated in 96-well plates. Parasites expressing tdTomato were used to assess parasite viability using fluorescence measurements. Parasites were incubated with 25 μM of the compounds of the disclosure for 48 hours at 37° C. After the incubation period, the viability of amastigotes and trypomastigotes was assessed by measuring the fluorescence intensity at 510 nm-590 nm using a Tecan plate reader, where the presence of fluorescence indicated viable amastigotes/trypomastigotes.

## O=C(NO)C(c1ccccc1)c1c(-c2ccc3ccccc3c2)[nH]c2ccccc12 (stereo not shown) [Compound 2, N-hydroxy-2-(2-(naphthalen-2-yl)-1H-indol-3-yl)-2-phenylacetamide]
[1]
  total number of parasites per cell: decreased the total number of parasites per cell in a dose dependent manner
[2]; 1 μM
  amastigotes in ARPE cultures: absent
[2]; 1 μM, 7 days, tdTomato fluorescence
  intracellular T. cruzi parasites: eradicated
[2]; 2 μM, second incubation with T. cruzi
  eradication of intracellular T. cruzi and reinfection: eradicated intracellular T. cruzi and protected cells from reinfection
[2]; 2 μM, two days
  T. cruzi in ARPE cells (CherryTomato fluorescence): eradicated T. cruzi
[2]; 5 μM for 2 days
  T. cruzi seen in EVOS image: Small amounts of T. cruzi dots were observed
[2]; 5 μM, 2 days, after 48 hours infection
  intracellular parasites: killed intracellular parasites
[2]; 5 μM
  amastigotes in ARPE cultures: absent
[2]; 10 μM for 2 days
  T. cruzi seen in EVOS image: could not be seen
[2]; 4 treatments with 2 μM over 4 days
  state of infected ARPE cells after treatment: cured
[2]; 5 (μM) for 2 days, day 17
  T. cruzi-infected cell foci in fluorescence images: Only two T. cruzi-infected cell foci were found
[2]; 10 (μM) for 2 days, day 17
  tdTomato fluorescence: no tdTomato fluorescence was observed
[2]; daily 2 μM for 5 days, then 5 days without treatment
  long term treatment efficacy against T. cruzi infection: long-term full cure
[2]; one treatment with 2 μM, 5-day incubation
  parasite death: full parasite death
[2]; repeated treatment (three times) with 1 μM, every 24 hours
  T. cruzi infection after treatment: eradicated the T. cruzi infection
[2]; single dose of 2 μM, 2 days
  intracellular T. cruzi and re-infection: killed intracellular T. cruzi and protected the cells from re-infection
[2]; single treatment with 1 μM
  T. cruzi infection after treatment: only a small portion of the T. cruzi infection remaining
[3]
  T. cruzi infection in VERO cells: eradication of T. cruzi infection
[4]
  toxicity to T. cruzi amastigotes and trypomastigotes: most toxic
